Results reported in the NIST ThermoML archive (doi:10.1021/je800481n).
± gives the expanded uncertainty stated by the source.

Assays:
[1] = Boiling temperature at pressure P; details: 101.3 kPa; Liquid; Ebulliometric method (Recirculating still)
[2] = refractive index (Na D-line) (dimensionless); details: 101.3 kPa, Liquid, Standard Abbe refractometry

In the case of `CC(=O)N(C)C` [N,N-dimethylethanamide], the “Boiling temperature at pressure P” value [1] is reported as 165.62 ± 0.12 °C and the refractive index ([2]; 298.15 K) is reported as 1.43507 ± 0.00051.
With `CNC(C)=O` [N-methylacetamide] the “Boiling temperature at pressure P” value [1] was 206.00 ± 0.12 °C and the refractive index ([2]; 301.15 K) was 1.42854 ± 0.00037.
For `CC(C)c1ccccc1` [isopropylbenzene], the “Boiling temperature at pressure P” value [1] was 152.29 ± 0.12 °C and the refractive index ([2]; 298.15 K) was 1.48829 ± 0.00037.
